Key:
human RARγ LBD = biological target: T1, human RARγ LBD (Homo sapiens, UniProt P13631); assay: RARγ SRC-2 coactivator recruitment assay (agonist mode); assay type: biochemical; settings: maximum stimulation relative to fitted top of TTNPB standard curve
T1 sequence (P13631 185-419 limits assumed): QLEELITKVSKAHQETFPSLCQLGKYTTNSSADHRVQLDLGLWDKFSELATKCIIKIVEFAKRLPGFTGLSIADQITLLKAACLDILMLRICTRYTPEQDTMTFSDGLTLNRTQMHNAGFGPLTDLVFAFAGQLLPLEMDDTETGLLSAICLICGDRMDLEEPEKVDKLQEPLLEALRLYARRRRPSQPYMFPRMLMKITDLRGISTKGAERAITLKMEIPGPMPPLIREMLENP
T1 sequence (P19793 227-458 partner limits assumed): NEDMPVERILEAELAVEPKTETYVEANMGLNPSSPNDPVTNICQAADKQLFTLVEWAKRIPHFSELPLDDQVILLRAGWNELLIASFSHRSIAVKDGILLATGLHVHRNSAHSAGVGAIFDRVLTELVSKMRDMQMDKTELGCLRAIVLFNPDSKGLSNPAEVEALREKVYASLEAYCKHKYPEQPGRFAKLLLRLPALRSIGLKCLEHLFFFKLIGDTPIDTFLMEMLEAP
Text: The RARγ SRC-2 Coactivator recruitment assay utilizes the ligand binding domain (LBD) of RARγ with its binding partner RXRα to determine the ability of a compound to enhance the recruitment of the co-activator SRC-2 to the receptor complex. Enhanced recruitment of SRC2 is known to be reflective of an agonist confirmation of the RARγ receptor. The RARγ LBD and SRC2 peptides are covalently linked to AlphaScreen® beads such that enhanced protein-protein interactions can be assessed by energy transfer. Coactivator recruitment assays are performed using AlphaScreen® technology (Perkin Elmer USA) using a 6X-Histidine tagged human RARγ LBD and GST tagged hSRC-2 protein. Unlabelled RXRα LBD is added as a silent heterodimer partner. Nickel chelated donor beads are used to bind RARγ LBD and anti-GST acceptor beads are used to bind SRC-2. Serially diluted test compound is added in concentrations ranging from 10 μM to 500 pM to 20 nM human RARγ receptor, 25 nM RXRα LBD, and 5 nM SRC-2 protein in a buffer containing 25 mM HEPES (pH 7.5), 100 mM NaCl, 0.1% Bovine Serum Albumin (fraction V), and 2 mM DTT containing 16.67 μg/ml of nickel chelated donor beads and 16.67 μg/ml of anti GST acceptor beads in a final volume of 15 μl per well in a white 384 shallow well proxiplate. The RAR agonist, TTNPB, is used as a standard on each plate and is added in concentrations ranging from 100 nM to 5 pM. After incubating for 12 hours at room temperature, read the plate on a Perkin Elmer Envision using standard AlphaScreen® parameters for excitation and fluorescence. Use the data to calculate an EC50 for compounds after fitting the dose-response curves to a 4-parameter logistic fit. Calculate the percent stimulation using the fitted top of the TTNPB standard curve as a comparator.

RARβ = biological target: T2, RARβ (Homo sapiens, UniProt P10826); assay: RARβ binding assay (SPA, 3H-TTNPB competition); settings: RARβ/RXRα heterodimer
T2 construct: made in house; host or cells: baculovirus expression system
T2 sequence (P10826 1-455): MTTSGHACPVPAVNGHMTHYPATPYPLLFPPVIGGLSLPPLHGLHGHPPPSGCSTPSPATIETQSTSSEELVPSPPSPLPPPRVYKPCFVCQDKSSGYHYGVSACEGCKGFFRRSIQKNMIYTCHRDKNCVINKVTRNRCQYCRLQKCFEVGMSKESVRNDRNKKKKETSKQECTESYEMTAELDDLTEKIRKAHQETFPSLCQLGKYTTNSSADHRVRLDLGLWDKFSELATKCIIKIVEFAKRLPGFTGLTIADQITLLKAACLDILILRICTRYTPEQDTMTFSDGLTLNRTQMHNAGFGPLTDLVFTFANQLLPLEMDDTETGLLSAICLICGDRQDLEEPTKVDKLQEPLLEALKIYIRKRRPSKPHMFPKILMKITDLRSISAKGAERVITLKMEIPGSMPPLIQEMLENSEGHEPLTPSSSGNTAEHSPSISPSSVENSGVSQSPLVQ
T2 sequence (P19793 1-462 partner): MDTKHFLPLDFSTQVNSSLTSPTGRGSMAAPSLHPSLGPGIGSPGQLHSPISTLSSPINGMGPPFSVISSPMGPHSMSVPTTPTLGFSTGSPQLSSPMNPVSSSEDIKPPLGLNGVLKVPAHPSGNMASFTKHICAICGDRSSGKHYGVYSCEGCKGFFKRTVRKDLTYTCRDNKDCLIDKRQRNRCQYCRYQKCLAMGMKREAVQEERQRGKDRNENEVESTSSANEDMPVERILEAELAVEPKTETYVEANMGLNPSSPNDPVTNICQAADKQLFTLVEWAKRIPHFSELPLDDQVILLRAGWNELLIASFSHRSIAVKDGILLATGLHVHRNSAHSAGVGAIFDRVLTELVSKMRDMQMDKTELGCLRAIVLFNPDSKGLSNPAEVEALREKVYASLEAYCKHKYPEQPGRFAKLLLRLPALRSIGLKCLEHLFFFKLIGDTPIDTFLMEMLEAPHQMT
Text: Compounds can be evaluated for binding to RARα, β and γ by measuring their ability to competitively bind to the RAR receptors when dimerized with the binding partner RXRα. Competitive binding assays may be carried out by Scintillation Proximity Assay (SPA) technology using the RARα, β or γ heterodimer (with RXRα as a partner with all the RARs) receptors prepared in a baculovirus expression system. Use the biotinylated oligonucleotide: 5′-[…]-3′ for binding of receptor to yttrium silicate streptavidin-coated SPA beads. Per well, preincubate […] with 82.7 μg SPA beads in a binding buffer containing 10 mM HEPES pH 7.8, 80 mM KCl, 0.5 mM MgCl2, 1 mM DTT, 0.5% CHAPS and 16.6 μg bovine serum albumin for 30 min at room temperature. Then spin the mixture at 2,000 rpm for 3 min to pelletize the beads-oligo mix. Remove the supernatant and resuspend the beads-oligo pellet in the same binding buffer as above, but which in addition now also contain 14% glycerol, 5 μg of sheared salmon sperm DNA, 0.5 μg of RARα, 1.0 μg of RARβ, or 0.25 μg of RARγ receptor, respectively. Carry out the binding assays in the presence of ˜11.3 μCi of ^3H 4-[(E)-2-(5,6,7,8-tetrahydro-5,5,8,8-tetramethyl-2-naphthalenyl)-1-propenyl]benzoic acid (TTNPB), and multiple concentrations of test compound ranging from (5 nM to 10 μM). Non-specific binding may be determined in the presence of 1 μM unlabeled TTNPB. Use the data to calculate an IC50 for compounds after fitting the dose-response curves to a 4-parameter logistic fit. Use the Cheng-Prusoff equation to convert IC50 (nM) values for compounds to Ki, and the Kd may be determined by saturation binding.

% Stimulation (human RARγ LBD) | Ki (RARβ) | SMILES
0.2% | > 1820 nM | CN1CCN(C(=O)c2ccc(-n3nc(-c4ccc(C(=O)O)cc4)cc3-c3cc(C(C)(C)C)cc(C(C)(C)C)c3)cc2)CC1 [Example 1, 4-[5-(3,5-Di-tert-butylphenyl)-1-[4-(4-methylpiperazine-1-carbonyl)phenyl]pyrazol-3-yl]benzoic Acid]
0.6% | 1400 nM | CC(C)(C)c1cc(-c2cc(-c3ccc(C(=O)O)cc3)nn2-c2ccc(C(=O)N3CCOCC3)cc2)cc(C(C)(C)C)n1 [Example 8, 4-[5-(2,6-Di-tert-butyl-4-pyridyl)-1-[4-(morpholine-4-carbonyl)phenyl]pyrazol-3-yl]benzoic acid]
8.4% | 609 nM | CC(C)Sc1cc(-c2cc(-c3ccc(C(=O)O)cc3)nn2-c2ccc(C(=O)N(C)C)cc2)cc(C(C)(C)C)c1 [Example 12, 4-[5-(3-tert-Butyl-5-isopropylsulfanyl-phenyl)-1-[4-(dimethylcarbamoyl)phenyl]pyrazol-3-yl]benzoic Acid]
−3% | 828 nM | CC(C)(C)c1cc(-c2cc(-c3ccc(C(=O)O)cc3)nn2-c2ccc(S(C)(=O)=O)cc2)cc(C(C)(C)C)c1 [Example 19, 4-[5-(3,5-Di-tert-butylphenyl)-1-(4-methylsulfonylphenyl)pyrazol-3-yl]benzoic Acid]

Reference: patent US20140275049A1, “SUBSTITUTED PYRAZOLE ANALOGS As RAR ANTAGONISTS” (Eli Lilly and Company, priority 2011, published 2014)
